This assay deals with T1, aldose reductase (Bos taurus, UniProt P16116).
T1 construct: partially purified aldose reductase is isolated in known manner from bovine lenses; from tissue; host or cells: bovine lenses
Put plainly: in vitro inhibition of partially purified aldose reductase isolated from bovine lenses (reduction of glucose to sorbitol, spectrophotometric). It is filed as biochemical. Particulars: in vitro test. The text has this:
Thus, in a standard procedure partially purified aldose reductase is isolated in known manner from bovine lenses. The percentage inhibition of this enzyme's ability in vitro to catalyse the reduction of aldoses to polyhydric alcohols, and particularly to reduce glucose to sorbitol, caused by a test compound can then be determined using standard spectrophotometric methods.

The compound `Cc1c(C)c(S(=O)(=O)C[N+](=O)[O-])c(C)c2c1OC(C)(C)CC2` [Example 2, 2,2,5,7,8-pentamethyl-6-(nitromethylsulphonyl)-chroman] showed a 50% inhibitory concentration (IC50) of 13 nM.

(Values after patent US5185452A, “Benzheterocyclyl sulphones” (Imperial Chemical Industries PLC, priority 1989, dated 1993).)
